Read-outs that look alike come from different tables or passages of the source.
Tests used:
Experiment in all cases: CellTiter-Glo, hematologic malignancy panel
Type in all cases: cell-based
OPM2 = details: for GI50: Homo sapiens, OPM-2, MM
From the text: (§1) Identification of tumor types that are the most sensitive to the KSP inhibitors of the present invention can be accomplished using an unbiased approach that uses several cell-based assays. The assays chosen were as follows: • CellTiter-Glo®. This is an assay designed to measure ATP concentration in a cell culture, and can be correlated to cell number. Briefly CellTiter-Glo® (Promega Corporation) is a homogeneous method using the single CellTiter-Glo® reagent to detect ATP wherein ATP in the assay drives the activity of a thermostable luciferase to create a luminescent signal which can then be measured and correlated with the number of viable cells. Briefly, for adherent cells, 1,000 to 5,000 cells/well were plated in 96-well plates (100 μl/well) and let to adhere for 24 hours before being treated with drug. For non-adherent cells, 1,000 to 10,000 cells/well were plated in 96-well plates (100 μl/well) and immediately treated with drug. Drug dilutions were prepared in DMSO at 1000 times the final concentration. These dilutions were then diluted 1/100 in growth media before being added to the cells (11 μl/well) to achieve the desired final concentration. After 48 h in a 37° C. tissue culture incubator, the plates were processed for the CellTiter-Glo®assay according to the manufacturer's instructions. Protocol for a 72 hour cell proliferation assay: The 72 hour assay was performed the same way as the 48 hour assay except for the following modifications: For adherent cells, 500 to 5,000 cells/well were plated in 96-well plates (90 μl/well cell growth media) and left to adhere for 24 hours before being treated with drug. For non-adherent cells, 1,000 to 10,000 cells/well were plated in 96-well plates (90 μl/well cell growth media) and immediately treated with drug. Data values presented represent the concentration of test compound required for a 50% reduction in growth. • LDH release. The Cytotoxicity Detection KitPLUS (LDH) assay (Roche Diagnostics, Manheim, Germany) measures the amount of LDH released in the media by dying cells; LDH catalyzes the conversion of lactate into pyruvate. The enzymatic reaction is coupled to a chemical reaction that uses a tetrazolium salt to form a formazan that is red and can be detected by its absorbance at 490 nm. This assay measures the amount of cell death after drug treatment. Cells were plated at 10,000 cells/well in 96-well plates (100 μl/well). Adherent cells were let to adhere for 24 hours before being treated with drug, whereas non-adherent cells were immediately treated with drug. Drug dilutions were prepared in DMSO at 1000 times the final concentration. These dilutions were then diluted 1/100 in growth media before being added to the cells (11 μl/well) to achieve the desired final concentration. After 48 h in a 37° C. tissue culture incubator, the plates were processed for the Cytotoxicity Detection KitPLUS (LDH) assay according to the manufacturer's instructions. The media only values were subtracted from all the data points before analysis. Data values presented correspond to the compound concentration wherein LDH output is at half maximal level. • Caspase-Glo® 3/7. The Caspase-Glo® 3/7 Assay (Promega Corporation) is a homogeneous luminescent assay that measures caspase-3/7 activities. The assay provides a proluminescent caspase-3/7 DEVD-aminoluciferin substrate and a thermostable luciferase in a reagent optimized for caspase-3/7 activity, luciferase activity and cell lysis. Adding the single Caspase-Glo® 3/7 Reagent results in cell lysis, followed by caspase cleavage of the substrate. This liberates free aminoluciferin, which is consumed by the luciferase, generating a luminescent signal. The signal is proportional to caspase-3/7 activity. Data values presented correspond to the compound concentration wherein caspase 3/7 activity is at half maximal level. […]

KMS18-Luc = details: MM
From the text: as §1

Karpas-299-Luc = details: NHL
From the text: as §1

HEL92 = details: AML
From the text: as §1

H929 = details: for GI50: Homo sapiens, NCI-H929, MM
From the text: as §1

SR = details: NHL; for GI50: Homo sapiens
From the text: as §1

HL60 = details: for GI50: Homo sapiens, HL-60, AML
From the text: as §1

CCRF-CEM = details: ALL; for GI50: Homo sapiens
From the text: as §1

L363 = details: for GI50: Homo sapiens, L-363, MM
From the text: as §1

HL60-Luc = details: AML; for GI50: HL-60-Luc
From the text: as §1

L428 = details: for GI50: Homo sapiens, L-428, HL
From the text: as §1

K562 = details: CML; for GI50: Homo sapiens
From the text: as §1

KM-H2 = details: HL; for GI50: Homo sapiens
From the text: as §1

MOLM13-Luc = details: AML
From the text: as §1

KMS11 = details: for GI50: Homo sapiens, KMS-11, MM
From the text: as §1

Kasumi-1 = details: AML; for GI50: Homo sapiens
From the text: as §1

[1] = GI50 in nM, read-out: Log(GI50) (converted)

With `CC(C)(C)[C@H](c1nc(-c2cc(F)ccc2F)cn1Cc1ccccc1)N(CC[C@H](N)CF)C(=O)CO` [Compound IIa] the GI50 (OPM2; [1]) was 0.135 nM, the GI50 (OPM2; read-out: GI50) was 0.14 nM and the “Differential vs mean Log(GI50)” value (OPM2; MM) was 0.400. For the same molecule, the “Differential vs mean Log(GI50)” value (KMS18-Luc) was −0.184, the GI50 (KMS18-Luc; [1]) was 0.518 nM and the GI50 (KMS18-Luc; read-out: GI50) was 0.52 nM. The “Differential vs mean Log(GI50)” value (Karpas-299-Luc) was −1.775, the GI50 (Karpas-299-Luc; [1]) was 20.2 nM and the GI50 (Karpas-299-Luc; read-out: GI50) was 20.2 nM. For the same molecule, the “Differential vs mean Log(GI50)” value (HEL92) was −0.160, the GI50 (HEL92; [1]) was 0.49 nM and the GI50 (HEL92; read-out: GI50) was 0.49 nM. For the same molecule, the GI50 (H929; [1]) was 0.335 nM, the GI50 (H929; read-out: GI50) was 0.34 nM and the “Differential vs mean Log(GI50)” value (H929; MM) was 0.005. For the same molecule, the GI50 (SR; [1]) was 0.11 nM, the GI50 (SR; read-out: GI50) was 0.11 nM and the “Differential vs mean Log(GI50)” value (SR) was 0.487. The “Differential vs mean Log(GI50)” value (HL60; AML) was 0.313, the GI50 (HL60; [1]) was 0.165 nM and the GI50 (HL60; read-out: GI50) was 0.17 nM. The “Differential vs mean Log(GI50)” value (CCRF-CEM) was 0.315, the GI50 (CCRF-CEM; [1]) was 0.164 nM and the GI50 (CCRF-CEM; read-out: GI50) was 0.16 nM. For the same molecule, the GI50 (L363; [1]) was 0.13 nM, the GI50 (L363; read-out: GI50) was 0.13 nM and the “Differential vs mean Log(GI50)” value (L363; MM) was 0.416. For the same molecule, the “Differential vs mean Log(GI50)” value (HL60-Luc) was −0.173, the GI50 (HL60-Luc; [1]) was 0.505 nM and the GI50 (HL60-Luc; read-out: GI50) was 0.51 nM. For the same molecule, the “Differential vs mean Log(GI50)” value (L428; HL) was −1.771, the GI50 (L428; [1]) was 20 nM and the GI50 (L428; read-out: GI50) was 20 nM. For the same molecule, the “Differential vs mean Log(GI50)” value (K562) was 0.210, the GI50 (K562; [1]) was 0.209 nM and the GI50 (K562; read-out: GI50) was 0.21 nM. The “Differential vs mean Log(GI50)” value (KM-H2) was 0.162, the GI50 (KM-H2; [1]) was 0.233 nM and the GI50 (KM-H2; read-out: GI50) was 0.23 nM. The “Differential vs mean Log(GI50)” value (MOLM13-Luc) was 0.175, the GI50 (MOLM13-Luc; [1]) was 0.226 nM and the GI50 (MOLM13-Luc; read-out: GI50) was 0.23 nM. The GI50 (KMS11; [1]) was 0.483 nM, the GI50 (KMS11; read-out: GI50) was 0.48 nM and the “Differential vs mean Log(GI50)” value (KMS11; MM) was −0.154. For the same molecule, the “Differential vs mean Log(GI50)” value (Kasumi-1) was −0.113, the GI50 (Kasumi-1; [1]) was 0.44 nM and the GI50 (Kasumi-1; read-out: GI50) was 0.44 nM.
